Results from patent publication US20060134794A1, “Method of detecting the presence and/or progression of cancer” (priority 2004, published 2006).
pEC50: −log10 of the molar value.

Key:
constitutive CNOX [1] = target: T1, constitutive CNOX (Homo sapiens, UniProt Q8TC92); assay: NOX assay with human mammary epithelial (non-cancer) MCF-10A cells: CNOX; format: cell-based; design: solubilized ECTO-NOX activities released from the surface of HeLa cells by treatment at pH 5; endogenous in cells; host or cells: HeLa S cells, cell-free pH 5 extract; details: 100 μM AgO added in 1.7% phosphoric acid; 10^6 MCF-10A cells
T1 sequence (Q8TC92 1-643): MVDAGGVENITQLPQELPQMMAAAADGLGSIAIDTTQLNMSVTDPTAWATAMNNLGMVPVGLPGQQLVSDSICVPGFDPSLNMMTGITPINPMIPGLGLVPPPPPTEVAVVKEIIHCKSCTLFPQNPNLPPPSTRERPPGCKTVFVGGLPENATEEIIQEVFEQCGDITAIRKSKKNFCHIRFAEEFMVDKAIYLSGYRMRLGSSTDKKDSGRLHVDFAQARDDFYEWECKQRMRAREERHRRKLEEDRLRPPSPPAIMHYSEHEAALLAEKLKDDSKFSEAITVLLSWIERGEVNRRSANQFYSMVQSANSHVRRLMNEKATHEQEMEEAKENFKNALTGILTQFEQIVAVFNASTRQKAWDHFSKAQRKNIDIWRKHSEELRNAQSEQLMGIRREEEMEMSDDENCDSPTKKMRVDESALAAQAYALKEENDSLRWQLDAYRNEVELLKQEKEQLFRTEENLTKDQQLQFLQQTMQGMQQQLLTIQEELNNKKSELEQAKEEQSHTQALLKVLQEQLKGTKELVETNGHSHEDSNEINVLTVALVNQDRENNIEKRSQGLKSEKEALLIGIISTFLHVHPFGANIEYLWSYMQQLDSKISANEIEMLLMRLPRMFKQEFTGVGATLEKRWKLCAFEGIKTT
Procedure: (§1) FIG. 6 is as for FIG. 5 except that the assay was with 10^6 human mammary epithelial (non-cancer) MCF-10A cells. These cells lacked tNOX as their surface and contained predominantly a constitutive CNOX (single arrows) which was not inhibited by the 100 μM AgO added in 1.7% phosphoric acid. The MCF-10A cells were late passage cells and contained, as well, an age-related NOX (arNOX) with a period length of 26 minutes. This activity was inhibited by the AgO as shown in Panel B.
(§2) Growth of cells. Cells were grown in culture in a humidified atmosphere of 5% CO2 in air at 37° C. Media were renewed every 2 to 3 days. HeLa (ATCC CCL2) cells were grown in 175-cm^2 flasks in Minimal Essential Medium (Gibco), pH 7.4 at 37° with 10% fetal bovine serum (heat-inactivated), plus 50 mg/L gentamycin sulfate (Sigma). Cells were harvested by scraping and taken up in 140 mM NaCl, 5 mM KCl, 0.7 mM Na2HPO4 and 25 mM Tris, pH 7.4, to a final cell concentration of 0.1 g wet weight (gww) per mL. […]
(§3) Spectrophotometric assay of NADH Oxidase. NAD(P)H oxidase activities were measured using paired Hitachi U3210 spectrophotometers over successive 5-minutes intervals (two to four or more at low inhibitory concentrations) at 37° C. The activity was determined as the disappearance of NAD(P)H measured at 340 nm. […]

tNOX [2] = target: T2, tNOX (Homo sapiens, UniProt Q16206); assay: NOX assay with human mammary adenocarcinoma (BT-20) cells: tNOX; format: cell-based; design: endogenous in cells; details: 100 μM AgO; 2×10^6 BT-20 cells
T2 sequence (Q16206 1-610): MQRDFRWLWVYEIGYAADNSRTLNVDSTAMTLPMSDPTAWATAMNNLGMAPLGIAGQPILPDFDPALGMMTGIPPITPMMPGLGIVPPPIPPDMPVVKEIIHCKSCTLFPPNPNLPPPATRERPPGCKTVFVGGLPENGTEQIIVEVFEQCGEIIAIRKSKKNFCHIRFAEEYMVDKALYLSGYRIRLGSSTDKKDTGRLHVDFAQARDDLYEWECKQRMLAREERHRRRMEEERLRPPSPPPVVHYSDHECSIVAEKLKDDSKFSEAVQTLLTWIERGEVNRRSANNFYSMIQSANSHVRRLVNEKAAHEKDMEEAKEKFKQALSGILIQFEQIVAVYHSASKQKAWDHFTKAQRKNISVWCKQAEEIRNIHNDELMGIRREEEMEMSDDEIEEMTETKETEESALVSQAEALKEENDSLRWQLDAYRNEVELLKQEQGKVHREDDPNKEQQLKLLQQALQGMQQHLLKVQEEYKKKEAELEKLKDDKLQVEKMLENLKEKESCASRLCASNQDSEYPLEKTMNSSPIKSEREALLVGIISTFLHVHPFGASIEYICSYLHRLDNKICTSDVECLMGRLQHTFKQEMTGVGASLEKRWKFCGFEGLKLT
Procedure: (§4) FIG. 5 presents results from an assay using 2×10^6 human mammary adenocarcinoma (BT-20) cells carried out as described for FIG. 2. Panel A (no addition) received only the phosphoric acid (0.0017%).
as §2, with “mL. MCF-10A human mammary epithelial cells were cultured in a 1:1 mixture of Ham's F12 medium and Dulbecco's Modified Eagle's medium containing glutamine […], hydrocortisone (0.5 μg/mL), EGF (20 ng/mL), and 5% horse serum. Medium was renewed every 2-3 days.” for “mL.”
as §3

[3] = target: T3, recombinant form of tNOX (nus tNOX) (Homo sapiens, UniProt Q16206); assay: standard NOX assay (oxidation of NADH, decrease in A340) with recombinant tNOX; format: biochemical; details: 100 μM AgO in 1.7% phosphoric acid added after 45 minutes; 25° C
T3 construct: nus tag
T3 sequence (Q16206 1-610): T2 sequence (Q16206 1-610)
Procedure: In panel A, an equivalent amount of phosphoric acid was added. The assay measured oxidation of NADH (decrease in A340) in a standard NOX assay at 25° C.
(§5) Spectrophotometric assay of NADH Oxidase. NAD(P)H oxidase activities were measured using paired Hitachi U3210 spectrophotometers over successive 5-minutes intervals (two to four or more at low inhibitory concentrations) at 37° C. The activity was determined as the disappearance of NAD(P)H measured at 340 nm. The reaction mixture included sample, 50 mM Tris-MES, pH 7.0, 2 mM KCN, and 150 μM NAD(P)H in a total volume of 2.5 ml at 37° C. with stirring. A millimolar extinction coefficient of 6.22 was used to determine NAD(P)H disappearance.

constitutive CNOX [4] = target: T1, constitutive CNOX; assay: NOX (NADH oxidase) assay of solubilized ECTO-NOX activities released from the surface of HeLa cells: CNOX; format: biochemical; design: solubilized ECTO-NOX activities released from the surface of HeLa cells by treatment at pH 5; endogenous in cells; host or cells: HeLa S cells, cell-free pH 5 extract
Procedure: (§6) FIG. 2 is similar to FIG. 1 except that a preparation of solubilized ECTO-NOX activities released from the surface of HeLa cells by treatment at pH 5 (del Castillo-Olivares et al., Arch. Biochem. Biophys. 358: 125-140, 1998) was used as the enzyme source. The AgO was dissolved in DMSO added at a final concentration of AgO of 1 mM. The final concentration of DMSO added in both A and B after 45 minutes was 0.1%. The assays were then continued for and additional 45 minutes. The HeLa extracts contain both the constitutive CNOX (single arrows denoting a 24 minutes period length) and two activity maxima separated by 6 minutes and labeled (1) and (2) which are tNOX (double arrows). With addition of AgO, both tNOX activities are inhibited while the constitutive CNOX remain unaffected. Values are based on three experiments and report means±standard deviations to establish statistical reliability of the data.
FIG. 3 represents the response of total NOX (NADH oxidase) activity of the preparation of FIG. 2 as a function of the logarithm of AgO concentration. […]
as §3

constitutive CNOX [5] = assay: NOX assay with solubilized soybean plasma membranes; format: biochemical, soybean (Glycine max); details: plasma membranes solubilized in 0.1% Triton X-100 overnight
Procedure: FIG. 7 is similar to FIG. 6 except that plasma membranes isolated from etiolated hypocotyls (stems) of soybean (Glycine max) were the enzyme source. The plasma membranes were solubilized in 0.1% Triton X-100 overnight prior to assay. The soybean plasma membranes contain only a constitutive CNOX which is unresponsive to AgO.
as §5

age-related NOX (arNOX) = assay: NOX assay with human mammary epithelial (non-cancer) MCF-10A cells: arNOX; format: cell-based; details: 100 μM AgO added in 1.7% phosphoric acid; late passage MCF-10A cells
Procedure: as §1, §2, §3

constitutive CNOX [6] = target: T1, constitutive CNOX; assay: NOX assay with human mammary adenocarcinoma (BT-20) cells: CNOX; format: cell-based; design: endogenous in cells; details: 100 μM AgO; 2×10^6 BT-20 cells
Procedure: as §4
as §2, with “mL. MCF-10A human mammary epithelial cells were cultured in a 1:1 mixture of Ham's F12 medium and Dulbecco's Modified Eagle's medium containing glutamine […], hydrocortisone (0.5 μg/mL), EGF (20 ng/mL), and 5% horse serum. Medium was renewed every 2-3 days.” for “mL.”
as §3

tNOX [7] = target: T2, tNOX; assay: NOX (NADH oxidase) assay of solubilized ECTO-NOX activities released from the surface of HeLa cells: tNOX; format: biochemical; design: solubilized ECTO-NOX activities released from the surface of HeLa cells by treatment at pH 5; endogenous in cells; host or cells: HeLa S cells, cell-free pH 5 extract
Procedure: as §6
FIG. 3 represents the response of total NOX (NADH oxidase) activity of the preparation of FIG. 2 as a function of the logarithm of AgO concentration. The AgO was dissolved in 1.7% phosphoric acid and the dilutions were prepared in water. […] The EC50 of tNOX inhibition was estimated to be about 5 μM.
as §5
Preparation of HeLa Cells and Cell-Free Extracts. HeLa S cells were collected by centrifugation and shipped frozen in 0.1 M sodium acetate, pH 5, in a ratio of 1 mL of packed cell volume to 1 mL of acetate (Cellex Biosciences). The cells were thawed at room temperature, resuspended, and incutated at 37° for 1 hr to release the protein. […]

[8] = tested on: aging-related isoform (arNOX); details: previous findings described in the background; cited from earlier work
[9] = AgO dissolved in DMSO, final concentration 1 mM, added after 45 minutes

| Compound | inhibition of constitutive CNOX (constitutive CNOX [1]) | inhibition of the two activity maxima associated with tNOX (tNOX [2]) | inhibition of recombinant tNOX NADH oxidase activity [3] | inhibition of constitutive CNOX (constitutive CNOX [4]; AgO concentration series in 1.7% phosphoric acid/water) | effect on constitutive CNOX activity (constitutive CNOX [4]; [9]) | response of constitutive CNOX to AgO (constitutive CNOX [5]) | inhibition of age-related NOX (arNOX) activity (age-related NOX (arNOX)) | effect on constitutive CNOX (constitutive CNOX [6]) | inhibition of tNOX (tNOX [7]; AgO concentration of 100 μM (10^−4M)) | pEC50 (tNOX [7]; AgO dissolved in 1.7% phosphoric acid, dilutions in water, estimated from total NOX activity, read-out: EC50 of tNOX inhibition) | inhibition of tNOX activities (tNOX [7]; [9]) | effect on generation of superoxide by arNOX [8] |
| --- | --- | --- | --- | --- | --- | --- | --- | --- | --- | --- | --- | --- |
| [O]=[Ag] [AgO, silver (II) oxide] | not inhibited | inhibited | inhibited completely | not inhibited | unaffected | unresponsive | inhibited | without effect | completely inhibited | ~5.30 | inhibited |  |
| COC1=C(OC)C(=O)C(C/C=C(\C)CC/C=C(\C)CC/C=C(\C)CC/C=C(\C)CC/C=C(\C)CC/C=C(\C)CC/C=C(\C)CC/C=C(\C)CC/C=C(\C)CCC=C(C)C)=C(C)C1=O [coenzyme Q] |  |  |  |  |  |  |  |  |  |  |  | inhibition |
